The term IC50 denotes the concentration at which inhibition is half-maximal.

The first assay deals with IL-17A/A. Nature of the assay: IL-17A/A HEK-Blue cell assay. The format is cell-based. To be noted: HEK-Blue, 20 h, IL-17A/A inhibition, HEK-Blue IL-17A reporter cell line, IL17A/A 5 ng/mL, SEAP read at A630, read-out: AA IC50. On the procedure:
The HEK-Blue IL-17A reporter cell line (Fisher #NC1408637) was used for cell-based IL-17A/A inhibition assays. Cells were grown and prepared for assays according to the manufacturer's instructions. This cell line consists of HEK 293 cells that were designed to expressed IL-17RA, IL-17RC, and the Act1 adapter molecule, the combination of which, when stimulated by IL-17A/A or IL17A/F activates a NFκB promoter and drives expression of the recombinant Secreted Alkaline Phosphatase (SEAP) gene. Media from the cells is then added to a development reagent (Quanti-Blue Substrate, Fisher #NC9711613), and read at A630.
Compounds were dispensed in DMSO to an empty clear 384-well tissue culture plate in a titration ranging from 10 μM to 27 pM, with DMSO added to every well to a final concentration of 0.1%. Cells were then added to the plate (45 μL/well at a concentration of 280,000 cells/mL). IL17A/A (Genscript #Z03228) or IL17A/F (R&D Systems) was added to the plate to a final concentration of 5 ng/mL and a final well volume of 50 μL. The cells, compound, and IL-17A/A or IL17A/F were then incubated for 20 hours before media was removed for SEAP analysis. The resulting inhibition curve was then analyzed using Dotmatics' integrated 4-parameter fit screening protocol to generate IC50 values.
`CCn1nccc1C(=O)N[C@H](c1cn2nc(C[C@H]3C[C@@H](C(F)(F)F)CNC3=O)c(C3CCCO3)cc2n1)C1CCC(F)(F)CC1` (stereo partly drawn) [Compound 83]: the IC50 was less than 100 nM. On to `CCn1nccc1C(=O)N[C@H](c1cn2nc(C[C@H]3C[C@@H](C(F)(F)F)CNC3=O)c(C3CCCCO3)cc2n1)C1CCC(F)(F)CC1` (stereo partly drawn) [Compound 84], for which the IC50 is less than 100 nM. Same read-out and setting: next, `CCn1nccc1C(=O)N[C@H](c1cn2nc(C[C@H]3C[C@@H](C(F)(F)F)CNC3=O)c(C3CCOCC3)cc2n1)C1CCC(C)CC1` (stereo partly drawn) [Compound 86]: less than 100 nM; `CCn1nccc1C(=O)N[C@H](c1cn2nc(C[C@H]3C[C@@H](C(F)(F)F)CNC3=O)c(C3CCOC(C)(C)C3)cc2n1)C1CCC(F)(F)CC1` (stereo partly drawn) [Compound 87]: less than 100 nM; `CCn1ncnc1C(=O)N[C@H](c1cn2nc(C[C@H]3C[C@@H](C(F)(F)F)CNC3=O)c(C3CCOCC3)cc2n1)C1CCC(F)(F)CC1` [Compound 89]: 100 to 1000 nM. Consider `CC(C)n1ncnc1C(=O)N[C@H](c1cn2nc(C[C@H]3C[C@@H](C(F)(F)F)CNC3=O)c(C3CCOCC3)cc2n1)C1CCC(F)(F)CC1` [Compound 90], for which the IC50 was less than 100 nM. The same measure, in the same setting: for `O=C(N[C@H](c1cn2nc(C[C@H]3C[C@@H](C(F)(F)F)CNC3=O)c(C3CCOCC3)cc2n1)C1CCC(F)(F)CC1)c1ccnn1C1CC1` [Compound 91] the value was less than 100 nM.

For `O=C(N[C@H](c1cn2nc(C[C@H]3C[C@@H](C(F)(F)F)CNC3=O)c(C3CCOCC3)cc2n1)C1CCC(F)(F)CC1)c1ccnn1C1CC1(F)F` (stereo partly drawn) [Compound 92], the IC50 was in the range of 100 to 1000 nM. Still for that read-out and setting: for `CCn1nccc1C(=O)N[C@H](c1cn2nc(C[C@H]3C[C@@H](C(F)(F)F)CNC3=O)c(C3COCCO3)cc2n1)C1CCC(F)(F)CC1` (stereo partly drawn) [Compound 94] the value was 100 to 1000 nM; for `CCn1nccc1C(=O)N[C@H](c1cn2nc(C[C@H]3C[C@@H](C(F)(F)F)CNC3=O)c(N3CC(O)C3)cc2n1)C1CCC(F)(F)CC1` [Compound 98], 100 to 1000 nM; for `CCn1nccc1C(=O)N[C@H](c1cn2nc(C[C@H]3C[C@@H](C(F)(F)F)CNC3=O)c(N3CCN(CCOC)CC3)cc2n1)C1CCC(F)(F)CC1` [Compound 99, N—((S)-(4,4-difluorocyclohexyl)(7-(4-(2-methoxyethyl)piperazin-1-yl)-6-(((3R,5R)-2-oxo-5-(trifluoromethyl)piperidin-3-yl)methyl)imidazo[1,2-b]pyridazin-2-yl)methyl)-1-ethyl-1H-pyrazole-5-carboxamide], less than 100 nM. Turning to `CCn1nccc1C(=O)N[C@H](c1cn2nc(C[C@H]3C[C@@H](C)CNC3=O)c(C3CCOCC3)cc2n1)C1CCC(F)(F)CC1` [Compound 100, N—((1S)-(4,4-difluorocyclohexyl)(6-(((5R)-5-methyl-2-oxopiperidin-3-yl)methyl)-7-(tetrahydro-2H-pyran-4-yl)imidazo[1,2-b]pyridazin-2-yl)methyl)-1-ethyl-1H-pyrazole-5-carboxamide], the IC50 is 100 to 1000 nM. The same measure, in the same setting: next, `CCn1nccc1C(=O)N[C@H](c1cn2nc(C[C@@H]3C[C@@H](C)CNC3=O)c(C3CCOCC3)cc2n1)C1CCC(F)(F)CC1` [Compound 101, N—((1S)-(4,4-difluorocyclohexyl)(6-(((5R)-5-methyl-2-oxopiperidin-3-yl)methyl)-7-(tetrahydro-2H-pyran-4-yl)imidazo[1,2-b]pyridazin-2-yl)methyl)-1-ethyl-1H-pyrazole-5-carboxamide]: less than 100 nM; `CCn1nccc1C(=O)N[C@H](c1cn2nc(C[C@H]3C[C@H](C)CNC3=O)c(C3CCOCC3)cc2n1)C1CCC(F)(F)CC1` [Compound 102, N—((1S)-(4,4-difluorocyclohexyl)(6-(((5S)-5-methyl-2-oxopiperidin-3-yl)methyl)-7-(tetrahydro-2H-pyran-4-yl)imidazo[1,2-b]pyridazin-2-yl)methyl)-1-ethyl-1H-pyrazole-5-carboxamide]: 100 to 1000 nM; `CCn1nccc1C(=O)N[C@H](c1cn2nc(C[C@@H]3C[C@H](C)CNC3=O)c(C3CCOCC3)cc2n1)C1CCC(F)(F)CC1` [Compound 103, N—((1S)-(4,4-difluorocyclohexyl)(6-(((5S)-5-methyl-2-oxopiperidin-3-yl)methyl)-7-(tetrahydro-2H-pyran-4-yl)imidazo[1,2-b]pyridazin-2-yl)methyl)-1-ethyl-1H-pyrazole-5-carboxamide]: less than 100 nM. The same measure, in the same setting: for `CCn1nccc1C(=O)N[C@H](c1cn2nc(C[C@H]3C[C@@H](C(F)(F)F)CNC3=O)c(N3CCN4CCOC[C@@H]4C3)cc2n1)C1CCC(F)(F)CC1` [Compound 104, N—((S)-(4,4-difluorocyclohexyl)(7-((S)-hexahydropyrazino[2,1-c][1,4]oxazin-8(1H)-yl)-6-(((3R,5R)-2-oxo-5-(trifluoromethyl)piperidin-3-yl)methyl)imidazo[1,2-b]pyridazin-2-yl)methyl)-1-ethyl-1H-pyrazole-5-carboxamide] the value was less than 100 nM; for `CCn1nccc1C(=O)N[C@H](c1cn2nc(C[C@H]3C[C@@H](C(F)(F)F)CNC3=O)c(CN3CCC(F)(F)C3)cc2n1)C1CCC(F)(F)CC1` [Compound 105, N—((S)-(4,4-difluorocyclohexyl)(7-((3,3-difluoropyrrolidin-1-yl)methyl)-6-(((3R,5R)-2-oxo-5-(trifluoromethyl)piperidin-3-yl)methyl)imidazo[1,2-b]pyridazin-2-yl)methyl)-1-ethyl-1H-pyrazole-5-carboxamide], less than 100 nM; for `CCn1nccc1C(=O)N[C@H](c1cn2nc(C[C@H]3C[C@@H](C(F)(F)F)CNC3=O)c(CN3CCCC3)cc2n1)C1CCC(F)(F)CC1` [Compound 106, N—((S)-(4,4-difluorocyclohexyl)(6-(((3R,5R)-2-oxo-5-(trifluoromethyl)piperidin-3-yl)methyl)-7-(pyrrolidin-1-ylmethyl)imidazo[1,2-b]pyridazin-2-yl)methyl)-1-ethyl-1H-pyrazole-5-carboxamide], less than 100 nM.

Still in this assay, the particulars now being: IL-17A/A inhibition, HEK-Blue IL-17A reporter cell line, IL17A/A 5 ng/mL, 20 hours, SEAP read at A630; read-out: AA IC50.
In the case of `CCn1nccc1C(=O)N[C@H](c1cn2nc(C[C@H]3C[C@@H](C(F)(F)F)CNC3=O)c(C3CCCCO3)cc2n1)C1CCC(F)(F)CC1` (stereo partly drawn) [Compound 85], the IC50 is less than 100 nM.

With `CCn1nccc1C(=O)N[C@H](c1cn2nc(C[C@H]3C[C@@H](C(F)(F)F)CNC3=O)c(C3CCOC(C)(C)C3)cc2n1)C1CCC(F)(F)CC1` (stereo partly drawn) [Compound 88], the IC50 is less than 100 nM.

As for `O=C(N[C@H](c1cn2nc(C[C@H]3C[C@@H](C(F)(F)F)CNC3=O)c(C3CCOCC3)cc2n1)C1CCC(F)(F)CC1)c1ccnn1C1CC1(F)F` (stereo partly drawn) [Compound 93], the IC50 is less than 100 nM. Turning to `CCn1nccc1C(=O)N[C@H](c1cn2nc(C[C@H]3C[C@@H](C(F)(F)F)CNC3=O)c(C3COCCO3)cc2n1)C1CCC(F)(F)CC1` (stereo partly drawn) [Compound 95], the IC50 was less than 100 nM.

As for `CCn1nccc1C(=O)N[C@H](c1cn2nc(C[C@@H]3C[C@@H](C(F)(F)F)CNC3=O)c(N3CCOCC3C)cc2n1)C1CCC(F)(F)CC1` (stereo partly drawn) [Compound 96], the half-inhibitory concentration (IC50) is more than 1000 nM. For `CCn1nccc1C(=O)N[C@H](c1cn2nc(C[C@@H]3C[C@@H](C(F)(F)F)CNC3=O)c(N3CCOCC3C)cc2n1)C1CCC(F)(F)CC1` (stereo partly drawn) [Compound 97], the 50% inhibitory concentration (IC50) is less than 100 nM.

These data come from patent US20260265259A1, “SUBSTITUTED 6-IMIDAZOPYRIDAZINE IL-17A MODULATORS AND USES THEREOF” (DICE ALPHA, INC., priority 2023, published 2026).
